Reference: patent US20250064889A1, “TRPV6 INHIBITORS AND COMBINATION THERAPIES FOR TREATING CANCERS” (Soricimed Biopharma Inc., priority 2017, published 2025)

Experiments:
[1] = system: BxPC-3 pancreatic cancer cells; assay: Combination with immune checkpoint modulator: BxPC-3 cells co-incubated with activated Jurkat cells, viability and IL-2; type: cell-based; conditions: BxPC-3 pre-treated with INF-γ, 100 μM SOR-C13 48 hours
Experimental: Experiments are performed to evaluate the effect of TRPV6 inhibitors in combination with immune checkpoint modulators such as PD-1 inhibitors (see Yang et al., Invest Ophthalmol Vis Sci. 2008 June; 49(6): 2518-2525; and FIG. 2). Briefly, BxPC-3 pancreatic cancer cells are treated with INF-γ for 48 hours to induce the cell surface expression of PD-L1. Once activated, sets of BxPC-3 cells are treated with 0 or 100 μM of SOR-C13 (KEFLHPSKVDLPR; SEQ ID NO:2) for 48 hours. Immune checkpoint modulatory test agents such as pembrolizumab (KEYTRUDA*) are added at various concentrations, along with activated Jurkat cells (i.e., cytotoxic T-cells), and co-incubated with the BxPC-3 cells for 48 hours.
Viability and IL-2 production is determined 48 hours later. Activated Jurkat cells produce IL-2 which mediates the killing of BxPC-3 cells. Cell death is quantified using the Cell Titre Glow Cellular Viability Assay. The effect of SOR-C13 on IL-2 mediated killing of BxPC-3 cells is compared to IL-2 mediated killing of BxPC-3 cells in the absence of SOR-C13.

[2] = system: NFAT signalling molecular pathway targets (Calnr, Bel-2, ATX, MMP-9 and NFAT); assay: In vitro dosing experiments, NFAT signalling molecular pathway targets (summary); type: cell-based
Experimental: (§1) • Transfection: T-47D cells were plated at 1×10^4 cells/well in a 96-well plate and cultured overnight. Cells were transfected for 24 hrs at 37° C./5% CO2 using Liptofectamine 3000 (0.3 μL/well)/P3000 Reagent (1 μL/well) in Opti-MEM medium and with a 500 ng of NFAT dual reporter plasmid (Cignal NFAT Reporter, Qiagen). • Drug Dosing: After transfection the T-47D cells were dosed daily with NT (s.f. PBS) or 500 μM SOR-C13 (prepared fresh daily in f.s. PBS) for 72 hrs. Once dosed the 96-well plate was incubated at 37° C./5% CO2 for the duration dosing period of 72 hrs. Dosing was repeated every 24 hrs for 72 hrs. • Plate Assay: Luminescence was monitored using Dual-Glo® Luciferase assay (Promega) to measure changes in NFAT luminescence expression (related to pKC pathway) between PBS and SOR-C13 treated T-47D cells. Firefly and Renilla Luminescence was measured using a molecular devices microplate reader.
• Drug Dosing: Cells were plated at 5×10^5 cells/well in a 6-well plate. After 24 hrs incubation the BxPC-3 cells were dosed daily with NT (s.f. PBS) or 500 μM SOR-C13 (prepared fresh daily in f.s. PBS) for 72 hrs. […] Bel-2 assay was a 96 hrs dosing parameter. • Plate Assay (Calnr): Cellular Calcineurin concentration was monitored at 620 nm using the Calcineurin Cellular (PP2B) Phosphate Activity Assay kit (EMD Millipore). […]

[3] = system: T-47D breast cancer cell lines; assay: RT-qPCR TaqMan Array, 187 gene panel, T-47D cells treated with SOR-C13; type: cell-based; conditions: 500 μM for 120 hrs, genes with >1.5 fold change
Experimental: • mRNA Expression: The expression NFAT/Ca^2+ related genes mRNA levels were determined in 6 Cancer Cell lines treated with SOR-C13 (500 μM) for 120 hrs using a qPCR TaqMan® Array panel consisting of 187 genes (ThermoFisher). Cells were harvested with lysis buffer from the PureLink RNA Mini Kit and then RNA isolation carried out as per manufacturers instructions (ThermoFisher Scientific). RNA was quantified using the Qubit Fluorometer. Reverse Transcription was performed and cDNA created using SuperScript™ IV VILO Master Mix with ezDNase Enzyme (ThermoFisher Scientific). Each port of the Custom TaqMan® Array Card was loaded with 500 ng of cDNA and 1× TaqMan Fast Advanced Master Mix. RT-qPCR was performed using the Quantstudio™ 7Flex and analysis performed by ThermoFisher cloud software using GUSB and HRPT1 as endogenous controls.

calcineurin = assay: Calcineurin Cellular (PP2B) Phosphate Activity Assay on BxPC-3 cell lysates; type: cell-based; conditions: 500 μM, at 24 hrs and 72 hrs, p<0.05
Experimental: (§2) • Drug Dosing: Cells were plated at 5×10^5 cells/well in a 6-well plate. After 24 hrs incubation the BxPC-3 cells were dosed daily with NT (s.f. PBS) or 500 μM SOR-C13 (prepared fresh daily in f.s. PBS) for 72 hrs. Once dosed cells were incubated at 37° C./5% CO2 for the duration dosing period of 72 hrs. Dosing was repeated every 24 hrs for 72 hrs. Every 24 hrs protein lysates (RIPA) were prepared from cells and de-salted (7 kDa MWCO, Zebra spin columns, Fisher). Bel-2 assay was a 96 hrs dosing parameter. • Plate Assay (Calnr): Cellular Calcineurin concentration was monitored at 620 nm using the Calcineurin Cellular (PP2B) Phosphate Activity Assay kit (EMD Millipore). Results were interpolated from standard curve for amount of Phosphate released. • Plate Assay (Bcl-2): Human total Bel-2 concentration was performed using DuoSet® Human Total BcL-2 sandwich ELISA (R&D Systems). Bel-2 concentration for BxPC-3 cells was extrapolated from (4-PL) standard curve Bel-2.

[4] = Fu et al. 2017; cited from earlier work
NFAT activation = assay: In vitro NFAT analysis: NFAT dual reporter luciferase assay in T-47D cells; type: cell-based; conditions: 500 μM daily for 72 hrs, p<0.05
Experimental: as §1

MMP-9 = MMP-9 Cytoglow ELISA on BxPC-3 cells; type: cell-based; conditions: BxPC-3 cells treated for 96 hr daily at 100 and 500 μM, p<0.05
Experimental: • Drug Dosing: BxPC-3 cells were plated at 2×10^4 cells/well in a 96-well plate and cultured overnight. Cells were dosed daily with NT (s.f. PBS) 100, 500 μM SOR-C13 (prepared fresh daily in f.s. PBS) for 96 hrs. Dosing was repeated every 24 hrs for 96 hrs. • Plate Assay: MMP-9 concentration was monitored using the MMP-9 Cytoglow ELISA (Assay Biotech). Cells were fixed to plate, and ELISA was performed, MMP-9 expression was calculated as % of No Treatment control.

Human total Bel-2 = assay: Human Total Bcl-2 sandwich ELISA on BxPC-3 cells; type: cell-based; conditions: 500 μM, at 96 hrs, p<0.05
Experimental: as §2

KEFLHPSKVDLPR [SOR-C13]
anti-cancer activity of immune checkpoint modulators such as pembrolizumab on addition of SOR-C13 [1]: increases | NFAT signalling molecular pathway targets (Calnr, Bel-2, ATX, MMP-9 and NFAT) with treatment [2]: decreases | NFATC1, MMP2, GSK3 and RCAN1 mRNA expression (Calcineurin/NFAT pathway) [3]: affected | calcineurin activity (calcineurin): inhibition | anti-tumour activity [4]: promising anti-tumour activity | tolerability and safety profile [4]: good tolerability and manageable safety profile | NFAT activation, SOR-C13-treated cells vs. PBS (NFAT activation): significant difference | MMP-9 expression, % from PBS control (MMP-9): reduction | Bel-2 expression (Human total Bel-2): significant decrease
